Experimental data: paper PMC12040169 (PLOS Biology, 2025)

Test: in vitro
Details: human, hela cells, % viability

| SMILES | viability at 28.5 h, 10 µM |
| --- | --- |
| Cc1ccc(/N=N/N(CC(O)C(O)C(O)CO)c2ccc(C)c(C)c2)cc1C (stereo not shown) [CBK262705] | 90% |
| O=C(c1ccccc1)c1ccc2[nH]c(-c3ccc(NC(=O)c4ccccc4Cl)cc3)nc2c1 [CBK262706] | 83.7% |
| CCOC(=O)CC1=C(C(=O)OCC)C(c2ccccc2C(F)(F)F)C(C#N)=C(N)O1 (stereo not shown) [CBK262710] | 105% |
| CS(=O)(=O)N(Cc1ccccc1)c1ccc(C(=O)N/N=C/c2ccccc2C(F)(F)F)cc1 [CBK262711] | 88% |
| O=C(N/N=C/c1cccnc1)C1CCCN(S(=O)(=O)c2ccccc2)C1 (stereo not shown) [CBK262712] | 91.5% |
| Cc1cc(C)c(OCCNC(C)(C)C)c(Cl)c1 [CBK262713C] | 93.2% |
| O=C(O)CC(Cc1ccc(Br)cc1)C(=O)Nc1ccccc1 (stereo not shown) [CBK262714] | 96.2% |
| COc1cccc(OC)c1OCCCN1CCCCC1 [CBK262719] | 97.7% |
| CC(=O)Nc1ccc(/C(C)=N/NC(=O)c2ccc(CN3CCOCC3)cc2)cc1 [CBK262720] | 91.7% |
| O=C(N/N=C/c1cc2c(cc1Br)OCO2)c1ccc(CN2CCOCC2)cc1 [CBK262721] | 90.1% |
| N#Cc1c(NC(=O)c2ccc(C(=O)O)cc2C(=O)O)sc2c1CCCC2 [CBK262722] | 105% |
| O=C(CSc1ccc(Cl)cc1)Nc1ccc(S(=O)(=O)N2CCOCC2)cc1 [CBK262723] | 95% |
| Cc1c(C(=O)O)cccc1N1C(=O)c2ccc([N+](=O)[O-])cc2C1=O [CBK262724] | 99.9% |
| Cc1[nH]nc(Nc2cccc(C(=O)O)c2)c1[N+](=O)[O-] [CBK262725] | 96.2% |
| OC(CN1CCN(C(c2ccccc2)c2ccccc2)CC1)Cn1c2ccccc2c2ccccc21 (stereo not shown) [CBK262730] | 99.6% |
| Cc1ccc2nc(Cl)c(/C=N/NC(=O)CN3CCOCC3)cc2c1 [CBK262731] | 91.2% |
| C=CCn1c(SCC(=O)O)nnc1-c1ccc([N+](=O)[O-])cc1 [CBK262736] | 88.6% |
| C=C(C)Cn1c(SCC(=O)O)nnc1-c1ccccc1 [CBK262737] | 91.9% |
| O=[N+]([O-])c1ccc2c(c1)C(N1CCOCC1)/C(=C/COc1ccc3ccccc3c1Br)O2 (stereo not shown) [CBK262738] | 97.1% |
| O=[N+]([O-])c1ccc(O)c(C(C#Cc2ccccc2)N2CCOCC2)c1 (stereo not shown) [CBK262741] | 93.2% |

| SMILES | viability at 28.5 h, 10 µM |
| --- | --- |
| CN1CCC(=NNC(=O)c2ccc(N(Cc3ccccc3)S(C)(=O)=O)cc2)CC1 [CBK262742] | 82.4% |
| CC(=O)Nc1cccc(/C(C)=N/NC(=O)c2ccc(CN3CCOCC3)cc2)c1 [CBK262746] | 95.4% |
| Cc1ccc(C(=O)O)cc1N1C(=O)c2ccc(S(=O)(=O)c3ccc(C(=O)O)cc3)cc2C1=O [CBK262747] | 96.1% |
| C/C(CCc1ccccc1)=N\NC(=O)c1ccc(CN2CCOCC2)cc1 [CBK262752] | 99.5% |
| Clc1ccc(OC/C=C2\Oc3ccc(Cl)cc3C2N2CCOCC2)c(Cl)c1 (stereo not shown) [CBK262753] | 94.5% |
| CS(=O)(=O)N(Cc1ccccc1)c1ccc(C(=O)Nc2ccc(-c3ccccc3)cc2)cc1 [CBK262754] | 90.6% |
| Cc1ccc(N2C(=O)/C(=C/c3ccc(O)c(O)c3)SC2=S)cc1C [CBK262756] | 76.8% |
| CCOc1cc(/C=C2\SC(=S)N(NC(=O)c3cccnc3)C2=O)ccc1O [CBK262759] | 105% |
| O=C(O)c1ccc(S(=O)(=O)c2ccc3c(c2)C(=O)N(c2ccccc2-c2ccccc2)C3=O)cc1 [CBK262760] | 101% |
| O=C(CN1C(=O)c2ccccc2C1=O)Nc1cccc2ncccc12 [CBK262761] | 84% |
| Cc1nnc(SCC(=O)N/N=C/c2ccncc2)n1-c1ccccc1 [CBK262762] | 85.4% |
| CN1CCN(N/C=C2/C(=O)N(c3ccc([N+](=O)[O-])cc3)N=C2c2ccccc2)CC1 [CBK262763] | 89.6% |
| COc1ccccc1N1C(=O)CC(SC(=N)N/N=C(\C)c2ccc(O)cc2)C1=O (stereo not shown) [CBK262766] | 100% |
| Cc1nnc(SCC(=O)N/N=C/c2ccc(-c3ccc(Br)cc3)o2)n1-c1ccccc1 [CBK262769] | 104% |
| O=C(N/N=C/c1ccccc1O)c1ccn(Cc2ccc(Cl)cc2)n1 [CBK262770] | 91.3% |
| O=C1NCC(c2ccccc2)C1C(=O)N/N=C\c1cc(O)ccc1[N+](=O)[O-] (stereo not shown) [CBK262772] | 91.8% |
| O=C1c2ccc(Oc3ccc4c(c3)C(=O)N(c3cccnc3)C4=O)cc2C(=O)N1c1cccnc1 [CBK262773] | 88.6% |
| CN1CCN(c2nc(-c3ccccc3)cc(-c3ccc(Br)cc3)n2)CC1 [CBK262774] | 93.7% |
| O=C(CSc1nnc(-c2ccncc2)n1-c1ccccc1)N/N=C/c1c[nH]c2ccccc12 [CBK262776] | 90.5% |
| O=C(Cc1ccccc1)N/N=C/c1cccc2cccnc12 [CBK262778] | 85.7% |

| SMILES | viability at 28.5 h, 10 µM |
| --- | --- |
| Cc1cc2nc(-c3cc(NC(=O)c4ccc(C)c([N+](=O)[O-])c4)ccc3O)oc2cc1C [CBK262779] | 89.1% |
| O=C(COc1ccccc1Cl)N/N=C/c1ccc(-c2ccccc2[N+](=O)[O-])o1 [CBK262782] | 112% |
| O=C(c1cccc([N+](=O)[O-])c1)c1ccc2c(c1)C(=O)N(Cc1cccnc1)C2=O [CBK262784] | 80.1% |
| O=C(O)/C=C/C(=O)N(Cc1ccc2c(c1)OCO2)C1CC(=O)N(c2ccccc2)C1=O (stereo not shown) [CBK262786] | 91.4% |
| COc1cc(NC(=O)c2ccc3c(c2)C(=O)N(c2ccccc2OC)C3=O)c(C(=O)O)cc1OC [CBK262787] | 95.1% |
| O=C(O)c1ccc(/C=N\NC(=O)C2COc3cc4ccccc4cc3O2)cc1 (stereo not shown) [CBK262792] | 90.4% |
| O=C(CN1C(=O)c2ccccc2C1=O)NCc1ccc(C(=O)O)cc1 [CBK262795] | 90.2% |
| COc1cc(NS(=O)(=O)c2ccc(Nc3nc(-c4sc(N)nc4C)cs3)cc2)nc(OC)n1 [CBK262796] | 91.2% |
| Cc1ccc(S(=O)(=O)NC(C)(C)CN2CCN(C(c3ccccc3)c3ccccc3)CC2)cc1 [CBK262799] | 90% |
| O=C(O)c1cc(NC(=O)c2cccc(F)c2)cc(NC(=O)c2cccc(F)c2)c1 [CBK262800] | 90.6% |
| O=C(O)CCCN1C(=O)/C(=C/c2ccccc2[N+](=O)[O-])SC1=S [CBK262801] | 90.4% |
| CC(O)CNCCNc1c(Cl)cccc1[N+](=O)[O-] (stereo not shown) [CBK262802C] | 98.8% |
| O=[N+]([O-])c1cc(S(=O)(=O)N2CCCCCC2)ccc1NCc1ccccc1 [CBK262804] | 88.3% |
| CC(CO)(CO)Nc1ccc(C(F)(F)F)cc1[N+](=O)[O-] [CBK262806] | 61.9% |
| Cc1ccc(-c2ccc(/C=N\NC(=O)C3C(=O)NCC3c3ccccc3)o2)cc1Cl (stereo not shown) [CBK262808] | 98.7% |
| O=C(Oc1ccc(/C=N/NC(=O)C2COc3ccccc3O2)cc1)c1cccnc1 (stereo not shown) [CBK262811] | 96.5% |
| COc1ccc(/C=N/NC(=O)CSc2nnc(C)n2-c2ccccc2)cc1 [CBK262812] | 114% |
| CC(Oc1ccccc1)C(=O)Nc1cccc(-c2nnc(-c3ccccc3)o2)c1 (stereo not shown) [CBK262822] | 91.2% |
